The test system of data set [1] is mouse plasma proteins. In words: Plasma protein binding by rapid equilibrium dialysis. In kind it is in vitro ADME. The protocol:
(§1) The sample contained mouse plasma spiked with 1 or 10 μM SF2523 and was added to the sample chamber. The rapid equilibrium dialysis kit top was then sealed and incubated at 37°C on an orbital shaker at 100 rpm for 5 h.
(§2) At pre-determined times, aliquots (40 μl) were removed from the sample, and buffer chambers and mixed with an equal volume of buffer or blank plasma, respectively. The samples were further processed by SPE as described above and analyzed by LC–MS/MS. The stability, equilibrium, device recovery and PPB were calculated using the following equations ([Lindup & Orme, 1981]): (5) %Remaining at5h=[…]/Concentration0h×100 (6) %Equilibrium=Concentrationreceiver cell/Concentrationdonor cell×100 (7) %Device Recovery=Concentrationreceiver cell+Concentrationdonor cell/Concentration0h×100 (8) %Bound=Concentrationdonor cell−Conentrationreceiver cell/Concentrationdonor cell×100

Data set [2] can be described thus: In vitro metabolic stability in mouse S9. Particulars: for metabolic stability of positive controls: S9 and microsomes, in-house limits. The protocol: (§3) For metabolic stability samples, extractions (50 μl) were taken at each pre-determined time point and mixed with 300 μl of ice-cold methanol containing IS in a 1.5 ml centrifuge tube. Then, samples were vortexed for 2 min and centrifuged (17,950g) for 10 min. An aliquot (100 μl) of the clear supernatant was transferred into an autosampler vial and 2 μl was injected into the LC–MS/MS system.
Metabolic stability was assessed using mouse, rat and human liver microsomes, and mouse liver S9 fractions (XenoTech, LLC, Lenexa, KS, USA) were used for the in vitro assessment of phase I and II metabolism. Incubation with S9 fractions was performed in triplicate, at 2 μM SF2523 concentration as described in our previous report ([Aldhafiri et al., 2020]; [Bala et al., 2020]). The reaction was started by adding 2 μl of SF2523 at a final concentration of 2 μM. Serial samples (50 μl) were collected at selected time intervals and quenched with 300 μl of methanol spiked with 10 μl of IS (0.5 μg/ml). All of the samples were vortexed and centrifuged at 13,000g for 15 min, and the supernatant was collected and transferred to an autosampler vial and injected (2 μl) onto the LC–MS/MS system. Testosterone 7-hydroxycoumarin and diclofenac were used as positive controls to ensure that S9, microsomes and the incubation conditions were appropriate to conduct metabolism studies.
The S9 fraction and microsomal stability were expressed as the percentage of drug remaining at each time. The in vitro metabolic elimination rate constant was determined from the first-order plot of a natural logarithm of the area ratio vs. time. The slope of the linear regression equation was used to determine the elimination rate constant k (min^−1).

The nature of data set [3]: Stability of SF2523 in mouse plasma under storage conditions. In kind it is in vitro ADME. The procedure: Stability in mouse plasma was assessed in triplicate at LQC and HQC concentrations at room temperature (6 h, 25 ± 5°C), and after three freeze–thaw cycles (−80°C) and long-term storage (60 days at −80°C). Additionally, the 24 h autosampler stability of extracted samples (at 4°C) was determined.

Data set [4] can be described thus: In vitro metabolic stability in human liver microsomes. It counts as in vitro ADME. The conditions noted are these: read-out: in vitro t1/2. The protocol: as §3
(§4) Metabolic stability was assessed using mouse, rat and human liver microsomes, and mouse liver S9 fractions (XenoTech, LLC, Lenexa, KS, USA) were used for the in vitro assessment of phase I and II metabolism. Incubation with S9 fractions was performed in triplicate, at 2 μM SF2523 concentration as described in our previous report ([Aldhafiri et al., 2020]; [Bala et al., 2020]). The reaction was started by adding 2 μl of SF2523 at a final concentration of 2 μM. Serial samples (50 μl) were collected at selected time intervals and quenched with 300 μl of methanol spiked with 10 μl of IS (0.5 μg/ml). […]
(§5) The S9 fraction and microsomal stability were expressed as the percentage of drug remaining at each time. The in vitro metabolic elimination rate constant was determined from the first-order plot of a natural logarithm of the area ratio vs. time. […]

The nature of data set [5]: In vitro metabolic stability in mouse liver microsomes. It counts as in vitro ADME. The conditions noted are these: read-out: in vitro t1/2. The procedure:
as §3, §4, §5

The nature of data set [6]: Blood-to-plasma ratio in mouse blood. It counts as in vitro ADME. The protocol: At different time points (0, 30 and 60 min) aliquots (50 μl) were collected for blood analysis, and an additional sample (120 μl) was transferred to a microcentrifuge tube and centrifuged at 4,000g for 10 min at 4°C to separate 50 μl plasma for analysis. The whole blood and plasma samples were further processed by SPE as described above. The analyte peak area ratios were used to calculate the blood-to-plasma (B/P) ratio using Equation (4).
(4) ∕PBration=Analyte concentration in whole blood/Analyte concentration in plasma

Data set [7] is described as follows: Stability of SF2523 in mouse plasma under storage conditions. In kind it is in vitro ADME. The conditions noted are these: nominal 200 ng/ml, mean ± SD, n = 3, read-out: Stability recovery, Accuracy (%).
The nature of data set [8]: Plasma protein binding by rapid equilibrium dialysis. In kind it is in vitro ADME, mouse. Particulars: mouse plasma, mean, n = 3. The procedure:
as §1, §2

Data set [9] is described as follows: In vitro metabolic stability in human S9. It counts as in vitro ADME. Particulars: S9 fraction; human S9, 2 μM; read-out: in vitro t1/2.
A short description of data set [10]: Gastrointestinal fluid stability (SGF, SIF, phosphate buffer). In kind it is physicochemical. Particulars: 37°C. The procedure:
Simulated GIs were prepared according to United States Pharmacopoeia (USP) specifications. Briefly, SF2523 at 10 μM concentration was incubated with simulated gastric fluid (SGF). Simulated intestinal fluid (SIF) and phosphate buffer (100 mM, pH 7.4) were kept at 37°C in a shaking water bath, each in triplicate. Samples (100 μl) were collected at 0, 15, 30, 60 and 120 min. Immediately after sample collection, 5 vols of methanol containing IS were added and samples were prepared for analysis. Stability was determined as the percentage of parent compound detected at each time point relative to the concentration at 0 min in buffer (100%) ([Wang et al., 2015]).

Data set [11] can be described thus: Metabolite identification in mouse S9 fraction. In kind it is in vitro ADME. The conditions noted are these: phase I and II, 35 min gradient LC–MS/MS. The procedure: For metabolite identification, mass shift analyses were performed using the same LC–MS/MS system. […] The parent drug MS/MS spectrum was used as a template model for structure identification and assuming that the fragmentation pattern of the parent drug from the production spectrum was used to deduce the structures of the metabolites ([Francis et al., 1999]). The data acquisition for the metabolite identification study was conducted using Labsolution software (Shimadzu Scientific Instruments, Columbia, MD, USA, version 5.8).

The source of these data is article PMC13492205, “LC–MS/MS method for the quantitation of a dual PI3K/BRD4 inhibitor SF2523 in mouse plasma: Application to plasma protein binding and metabolism studies” (Biomedical chromatography : BMC, 2023).

Molecules are shown by their SMILES.

For `CC(C)NCC(O)COc1cccc2ccccc12` (stereo not drawn) [propranolol, reference compound], the “plasma protein binding of positive control drugs” value in data set [1] (compared with limits reported in the literature (Barber et al., 1978)) is listed as “within the acceptable limits”.
For `O=C(O)Cc1ccccc1Nc1c(Cl)cccc1Cl` [diclofenac], in data set [2], the “metabolic stability of positive controls” value is “within acceptable in-house limits”.
For `O=c1ccc2ccc(O)cc2o1` [7-hydroxycoumarin], the “metabolic stability of positive controls” value in [2] was “within acceptable in-house limits”.
Turning to `O=c1cc(N2CCOCC2)oc2c(-c3ccc4c(c3)OCCO4)csc12` [SF2523], the recovery at 6 h, 0.3 ng/ml in data set [3] (mouse plasma, Bench-top stability for 8 h at (21°C, 6 h), nominal 0.3 ng/ml, mean ± SD, n = 3, read-out: Stability recovery, Accuracy (%)) was determined as 95.8 ± 4.03%. Moreover, in data set [3] (mouse plasma, Bench-top stability for 8 h at (21°C, 6 h), nominal 375 ng/ml, mean ± SD, n = 3, read-out: Stability recovery, Accuracy (%)), the recovery at 6 h, 375 ng/ml came out at 111.2 ± 0.21%. The recovery at 60 days, 0.3 ng/ml in data set [3] (mouse plasma, Long-term stability (60 days, −80°C), nominal 0.3 ng/ml, mean ± SD, n = 3, read-out: Stability recovery, Accuracy (%)) was 103 ± 2.62%. Moreover, in data set [3] (mouse plasma, Long-term stability (60 days, −80°C), nominal 375 ng/ml, mean ± SD, n = 3, read-out: Stability recovery, Accuracy (%)), the recovery at 60 days, 375 ng/ml came to 97.25 ± 0.35%. Besides, the recovery at 0.3 ng/ml in data set [3] (mouse plasma, Three freeze-thaw cycles (−80°C to room temperature), nominal 0.3 ng/ml, mean ± SD, n = 3, read-out: Stability recovery, Accuracy (%)) was 92.9 ± 12.3%. For the same compound, in [3] (mouse plasma, Three freeze-thaw cycles (−80°C to room temperature), nominal 375 ng/ml, mean ± SD, n = 3, read-out: Stability recovery, Accuracy (%)), the recovery at 375 ng/ml came to 113.7 ± 0.14%. The recovery at 24 h, 0.3 ng/ml in data set [3] (mouse, extracted plasma samples, Autosampler stability (4°C, 24 h), nominal 0.3 ng/ml, mean ± SD, n = 3, read-out: Stability recovery, Accuracy (%)) is 105 ± 5.16%. Further, the recovery at 24 h, 375 ng/ml in data set [3] (mouse, extracted plasma samples, Autosampler stability (4°C, 24 h), nominal 375 ng/ml, mean ± SD, n = 3, read-out: Stability recovery, Accuracy (%)) is 103 ± 1.13%. In data set [3] (under a variety of storage conditions), the parent drug remaining is above 90%. Further, the half-life at 2 μM in [4] is below 2 min; in [5], below 2 min; in data set [2] (mouse, liver S9 fraction), below 2 min; in data set [9] it was below 2 min. Besides, the B/P in [6] (At 0.1 μg/ml, time point 0 min) is given as 0.85; in [6] (At 0.1 μg/ml, time point 30 min), 0.98; in data set [6] (At 0.1 μg/ml, time point 60 min), 0.83; in data set [6] (At 1 μg/ml, time point 0 min), 0.85; in data set [6] (At 1 μg/ml, time point 30 min), 0.93; in data set [6] (At 1 μg/ml, time point 60 min) it was 0.93. For the same compound, the blood plasma ratio at 0.1 μg/ml in data set [6] (whole blood, 0.1 μg/ml, overall value, read-out: blood-to-plasma ratio (B/P)) stood at 0.88. In addition, the blood plasma ratio at 1 μg/ml in [6] (whole blood, 1 μg/ml, overall value, read-out: blood-to-plasma ratio (B/P)) is 0.9. Further, the recovery at 6 h, 200 ng/ml in [7] (mouse plasma, Bench-top stability for 8 h at (21°C, 6 h)) stood at 107 ± 4.5%. Further, the recovery at 60 days, 200 ng/ml in data set [7] (mouse plasma, Long-term stability (60 days, −80°C)) amounted to 103 ± 11.2%. Moreover, the recovery at 200 ng/ml in data set [7] (mouse plasma, Three freeze-thaw cycles (−80°C to room temperature)) was 101 ± 5%. The recovery at 24 h, 200 ng/ml in data set [7] (mouse, extracted plasma samples, Autosampler stability (4°C, 24 h)) turned out to be 101 ± 1.77%. In addition, the “Percentage remaining at 5 h (stability)” value in data set [1] (mouse plasma, 37°C, 5 h incubation, mean, n = 3) was determined as 99.06%. Further, in data set [1] (mouse plasma, both tested concentrations), the “bound to mouse plasma proteins” value is given as above 95%. This compound showed a Percentage device recovery in data set [1] (rapid equilibrium dialysis device, mouse plasma, mean, n = 3) of 98.58%. In addition, in data set [8] (at 1 µM, read-out: Percentage plasma protein bound (converted)), the fraction unbound at 5 h, 1 µM is 0.0418. The fraction unbound at 5 h, 10 µM in [8] (at 10 µM, read-out: Percentage plasma protein bound (converted)) is 0.0327. For the same compound, the recovery at 5 h in data set [8] (mouse, mouse plasma in rapid equilibrium dialysis device, rapid equilibrium dialysis device, read-out: Percentage device recovery) is above 90%. The parent remaining in [10] (phosphate buffer pH 7.4, 10 μM, after 2 h) is above 90%; in data set [10] (simulated gastric fluid (SGF), pH 1.2, 10 μM, after 1 h), above 90%; in data set [10] (simulated intestinal fluid (SIF), pH 6.8, 10 μM, after 2 h), above 90%. The “number of metabolites identified” value in data set [11] is on record as “Seven”.
For `C[C@]12CC[C@H]3[C@@H](CCC4=CC(=O)CC[C@@]43C)[C@@H]1CC[C@@H]2O` [testosterone], the “metabolic stability of positive controls” value in [2] is recorded as “within acceptable in-house limits”.
